# From patent publication US11414474B2, “Long-acting adrenomedullin derivatives” (University of Miyazaki, priority 2014, dated 2022)
# What was measured:
# AM receptor = target: T1, AM receptor (Homo sapiens, UniProt Q16602); test: Intracellular cAMP concentration-increasing effect in AM receptor-expressing HEK293 cells (cAMP ELISA); format: cell-based
# T1 construct: expressed in transfected cells; host or cells: HEK293 cell line
# Protocol: Then, the intracellular cAMP concentration in the HEK293 cells of each test sample was measured using an ELISA kit for cAMP measurement (GE Healthcare Japan Corp., #RPN2251).
# in vivo = details: male, Wistar, rat, iv
# Text: Each 11 to 14-week-old male Wistar rat was anesthetized by the inhalation of isoflurane. After tracheotomy, inhalational anesthesia was controlled at an isoflurane concentration of 1.5 to 2.5% and a flow rate of 0.6 to 0.8 L/min. The right jugular vein was isolated from the rat, and a catheter tube corresponding to 26 G was inserted thereto. Next, the left carotid artery was isolated from the rat thus treated, and a catheter tube corresponding to 23 G was inserted thereto. […] From the catheter inserted in the carotid artery, 300 μl of blood was collected over time from the start of the administration. Immediately, EDTA-2Na (300 μg) and aprotinin (21 μg) were added to the obtained blood sample, and the mixture was further centrifuged under conditions involving 3000 rpm and 10 minutes to obtain plasma. The AM concentration in the plasma of each sample was measured by chemiluminescent enzyme immunoassay. The half-lives in blood of the first and second phases were calculated from the measurement results of the AM concentration in the plasma using a two-compartment model.
# [1] = system: blood pressure of the rat; test: Blood pressure-lowering effect after single intravenous dose in anesthetized rats; format: in vivo; details: intravenous single dose 10 nmol/kg
# Protocol: From the catheter tube of the right jugular vein, a physiological saline-heparin solution (physiological saline: 100 ml; heparin: 1000 units) was infused at 2.4 ml/hr. […] The catheter inserted in the carotid artery was connected to a pressure transducer. […] In the figure, the longitudinal axis indicates a difference obtained by subtracting the average blood pressure before the administration of each drug from the average blood pressure at the time of the administration of each drug.
# In the case of these derivatives, the blood pressure-lowering effect was sustained even 90 minutes after the administration. […] The blood pressure-lowering effect of the adrenomedullin derivative shown in this test was well consistent with the prolonged half-life in blood shown in the above test.
# [2] = system: DSS-induced enteritis (inflammatory bowel disease model); test: Therapeutic effect on DSS-induced inflammatory bowel disease model (total score, length of intestinal tract); format: in vivo, mouse; design: total score, median value / total score, mean±standard deviation: scale not given here; details: for total score as compared with the control group: Steel's multiple comparison test, p<0.05 or P<0.01
# Protocol: The body weight of the subject mouse was measured 3, 5, 7, 10 and 14 days after the start of the administration.
# The body weight of the subject mouse and the form of stool thereof were evaluated 3, 5, 7, 10 and 14 days after the start of the administration on the basis of scoring criteria given below. The obtained scores were summed to calculate the total score of each sample.
# The intestinal tract excised by anatomy was opened along its longitudinal axis, and fat tissues were removed, followed by washing with physiological saline. Next, the length of the intestinal tract was measured.
# The total score evaluated by the procedures described above is indicated by a median value [mean±standard deviation]. The total scores of the control group obtained 3, 5, 7, 10 and 14 days after the start of the administration were 0.0 [0.6±0.3], 4.0 [3.7±0.4], 6.0 [5.4±0.5], 3.5 [4.1±0.4] and 0.0 [0.0±0.0], respectively.
# [3] = second-phase half-life in blood
# [4] = 0.02 nmol/kg/hr, 3 days after the start of the administration
# [5] = 0.1 nmol/kg/hr, 3 days after the start of the administration
# [6] = 0.5 nmol/kg/hr, 3 days after the start of the administration
# T1 sequence (Q16602 23-461): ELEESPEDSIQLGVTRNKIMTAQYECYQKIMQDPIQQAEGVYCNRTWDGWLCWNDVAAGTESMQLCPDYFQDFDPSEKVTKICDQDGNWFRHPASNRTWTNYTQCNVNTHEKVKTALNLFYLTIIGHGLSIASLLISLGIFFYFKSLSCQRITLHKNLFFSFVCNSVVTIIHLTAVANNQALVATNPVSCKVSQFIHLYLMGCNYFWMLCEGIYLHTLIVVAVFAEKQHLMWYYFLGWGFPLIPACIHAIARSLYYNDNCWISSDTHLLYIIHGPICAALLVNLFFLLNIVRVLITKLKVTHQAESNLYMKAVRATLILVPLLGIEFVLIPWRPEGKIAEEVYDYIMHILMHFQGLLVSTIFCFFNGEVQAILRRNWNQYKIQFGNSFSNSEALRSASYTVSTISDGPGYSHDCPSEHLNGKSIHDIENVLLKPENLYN
# T1 sequence (O60895 43-175 partner): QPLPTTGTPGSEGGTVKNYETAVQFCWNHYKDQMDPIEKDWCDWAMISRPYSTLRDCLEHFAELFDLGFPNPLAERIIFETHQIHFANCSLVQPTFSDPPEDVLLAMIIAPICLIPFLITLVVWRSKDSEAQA
compound,measurement,setting,value
CCCCCCCCCCCCCCCC(=O)N[C@@H](Cc1ccc(O)cc1)C(=O)N[C@@H](CCCNC(=N)N)C(=O)N[C@@H](CCC(N)=O)C(=O)N[C@@H](CO)C(=O)N[C@@H](CCSC)C(=O)N[C@@H](CC(N)=O)C(=O)N[C@@H](CC(N)=O)C(=O)N[C@@H](Cc1ccccc1)C(=O)N[C@@H](CCC(N)=O)C(=O)NCC(=O)N[C@@H](CC(C)C)C(=O)N[C@@H](CCCNC(=N)N)C(=O)N[C@@H](CO)C(=O)N[C@@H](Cc1ccccc1)C(=O)NCC(=O)N[C@H]1CSSC[C@@H](C(=O)N[C@H](C(=O)N[C@H](C(=O)N[C@@H](CCC(N)=O)C(=O)N[C@@H](CCCCN)C(=O)N[C@@H](CC(C)C)C(=O)N[C@@H](C)C(=O)N[C@@H](Cc2c[nH]cn2)C(=O)N[C@@H](CCC(N)=O)C(=O)N[C@H](C(=O)N[C@@H](Cc2ccc(O)cc2)C(=O)N[C@@H](CCC(N)=O)C(=O)N[C@@H](Cc2ccccc2)C(=O)N[C@H](C(=O)N[C@@H](CC(=O)O)C(=O)N[C@@H](CCCCN)C(=O)N[C@@H](CC(=O)O)C(=O)N[C@@H](CCCCN)C(=O)N[C@@H](CC(=O)O)C(=O)N[C@@H](CC(N)=O)C(=O)N[C@H](C(=O)N[C@@H](C)C(=O)N2CCC[C@H]2C(=O)N[C@@H](CCCNC(=N)N)C(=O)N[C@@H](CO)C(=O)N[C@@H](CCCCN)C(=O)N[C@H](C(=O)N[C@@H](CO)C(=O)N2CCC[C@H]2C(=O)N[C@@H](CCC(N)=O)C(=O)NCC(=O)N[C@@H](Cc2ccc(O)cc2)C(N)=O)[C@@H](C)CC)C(C)C)[C@@H](C)O)[C@@H](C)CC)C(C)C)[C@@H](C)O)NC(=O)[C@H]([C@@H](C)O)NC(=O)CNC(=O)[C@H](Cc2ccccc2)NC(=O)[C@H](CCCNC(=N)N)NC1=O [Pal-h.AM(1-52)],EC50,AM receptor,3.24 nM
same,maximum response value of increase in cAMP concentration as compared with h.AM(1-52),AM receptor; AM receptor-expressing HEK293 cells,substantially equivalent
same,half-life,in vivo; first-phase half-life in blood,3.51 min
same,half-life,in vivo; [3],123 min
same,effect on blood pressure,[1],lowered the blood pressure
same,maximum pressure drop value compared with h.AM(1-52),[1],lower than the value of h.AM(1-52)
"CC[C@H](C)[C@H](NC(=O)[C@H](CCC(N)=O)NC(=O)[C@H](Cc1c[nH]cn1)NC(=O)[C@H](C)NC(=O)[C@H](CC(C)C)NC(=O)[C@H](CCCCN)NC(=O)[C@H](CCC(N)=O)NC(=O)[C@@H](NC(=O)[C@@H](NC(=O)[C@@H]1CSSC[C@H](NC(=O)CNC(=O)[C@H](Cc2ccccc2)NC(=O)[C@H](CO)NC(=O)[C@H](CCCNC(=N)N)NC(=O)[C@H](CC(C)C)NC(=O)CNC(=O)[C@H](CCC(N)=O)NC(=O)[C@H](Cc2ccccc2)NC(=O)[C@H](CC(N)=O)NC(=O)[C@H](CC(N)=O)NC(=O)[C@H](CCSC)NC(=O)[C@H](CO)NC(=O)[C@H](CCC(N)=O)NC(=O)[C@H](CCCNC(=N)N)NC(=O)[C@@H](N)Cc2ccc(O)cc2)C(=O)N[C@@H](CCCNC(=N)N)C(=O)N[C@@H](Cc2ccccc2)C(=O)NCC(=O)N[C@@H]([C@@H](C)O)C(=O)N1)[C@@H](C)O)C(C)C)C(=O)N[C@@H](Cc1ccc(O)cc1)C(=O)N[C@@H](CCC(N)=O)C(=O)N[C@@H](Cc1ccccc1)C(=O)N[C@H](C(=O)N[C@@H](CC(=O)O)C(=O)N[C@@H](CCCCN)C(=O)N[C@@H](CC(=O)O)C(=O)N[C@@H](CCCCN)C(=O)N[C@@H](CC(=O)O)C(=O)N[C@@H](CC(N)=O)C(=O)N[C@H](C(=O)N[C@@H](C)C(=O)N1CCC[C@H]1C(=O)N[C@@H](CCCNC(=N)N)C(=O)N[C@@H](CO)C(=O)N[C@@H](CCCCN)C(=O)N[C@H](C(=O)N[C@@H](CO)C(=O)N1CCC[C@H]1C(=O)N[C@@H](CCC(N)=O)C(=O)NCC(=O)N[C@@H](Cc1ccc(O)cc1)C(N)=O)[C@@H](C)CC)C(C)C)[C@@H](C)O [h.AM(1-52), reference compound]",half-life,in vivo; first-phase half-life in blood,0.61 min
same,half-life,in vivo; [3],18.9 min
same,effect on blood pressure,[1],lowered the blood pressure
same,time after the administration at which the blood pressure before the administration was restored,[1],30 min
same,time of maximum pressure drop after the administration,[1],2 min
"PEG5000-h.AM(1-52): human adrenomedullin (1-52) N-terminally linked to PEG having an average molecular weight of 5000 via 1-oxo-1,6-hexanediyl","total score, mean±standard deviation",[2]; [4],0.8±0.2
same,"total score, median value",[2]; [4],1.0
same,"total score, mean±standard deviation","[2]; 0.02 nmol/kg/hr, 5 days",2.8±0.5
same,"total score, median value","[2]; 0.02 nmol/kg/hr, 5 days",2.5
same,"total score, mean±standard deviation","[2]; 0.02 nmol/kg/hr, 7 days",5.7±0.4
same,"total score, median value","[2]; 0.02 nmol/kg/hr, 7 days",5.5
same,"total score, mean±standard deviation","[2]; 0.02 nmol/kg/hr, 10 days",3.1±0.8
same,"total score, median value","[2]; 0.02 nmol/kg/hr, 10 days",2.5
same,length of the intestinal tract (mean±standard deviation),"[2]; 0.02 nmol/kg/hr, 14 days",69.4±1.5 mm
same,"total score, mean±standard deviation","[2]; 0.02 nmol/kg/hr, 14 days",0.0±0.0
same,"total score, median value","[2]; 0.02 nmol/kg/hr, 14 days",0.0
same,"total score, mean±standard deviation",[2]; [5],0.7±0.3
same,"total score, median value",[2]; [5],0.0
same,"total score, mean±standard deviation","[2]; 0.1 nmol/kg/hr, 5 days",1.9±0.5
same,"total score, median value","[2]; 0.1 nmol/kg/hr, 5 days",1.5
same,"total score, mean±standard deviation","[2]; 0.1 nmol/kg/hr, 7 days",4.1±0.4
same,"total score, median value","[2]; 0.1 nmol/kg/hr, 7 days",5.0
same,"total score, mean±standard deviation","[2]; 0.1 nmol/kg/hr, 10 days",2.0±0.5
same,"total score, median value","[2]; 0.1 nmol/kg/hr, 10 days",2.0
same,total score as compared with the control group,"[2]; 0.1 nmol/kg/hr, 10 days",significant decrease
same,length of the intestinal tract (mean±standard deviation),"[2]; 0.1 nmol/kg/hr, 14 days",71.4±0.9 mm
same,"total score, mean±standard deviation","[2]; 0.1 nmol/kg/hr, 14 days",0.0±0.0
same,"total score, median value","[2]; 0.1 nmol/kg/hr, 14 days",0.0
same,total score as compared with the control group,"[2]; 0.5 nmol/kg/hr, 5, 7 and 10 days",significant decrease
same,"total score, mean±standard deviation",[2]; [6],1.3±0.3
same,"total score, median value",[2]; [6],1.0
same,"total score, mean±standard deviation","[2]; 0.5 nmol/kg/hr, 5 days",1.1±0.3
same,"total score, median value","[2]; 0.5 nmol/kg/hr, 5 days",1.5
same,"total score, mean±standard deviation","[2]; 0.5 nmol/kg/hr, 7 days",3.0±0.3
same,"total score, median value","[2]; 0.5 nmol/kg/hr, 7 days",3.0
same,"total score, mean±standard deviation","[2]; 0.5 nmol/kg/hr, 10 days",2.1±0.4
same,"total score, median value","[2]; 0.5 nmol/kg/hr, 10 days",2.0
same,length of the intestinal tract (mean±standard deviation),"[2]; 0.5 nmol/kg/hr, 14 days",72.4±0.9 mm
same,"total score, mean±standard deviation","[2]; 0.5 nmol/kg/hr, 14 days",0.0±0.0
same,"total score, median value","[2]; 0.5 nmol/kg/hr, 14 days",0.0
same,length of the intestinal tract as compared with the control group,"[2]; all of 0.02, 0.1 and 0.5 nmol/kg/hr, Dunnett's multiple comparison test, P<0.05 or P<0.01",significantly different
same,effect on blood pressure,[1],lowered the blood pressure
same,maximum pressure drop value compared with h.AM(1-52),[1],lower than the value of h.AM(1-52)
